Experimental data from ChEMBL document CHEMBL5465560, “Selectivity Literature for EUbOPEN Chemogenomic Library” (2024).
Each block holds one molecule with its values, some of them ahead of it.

What was measured:
[1] = target: Serine/threonine-protein kinase/endoribonuclease IRE2 (Homo sapiens) (UniProt Q76MJ5); assay: Selectivity interaction (LanthaScreen Eu Kinase Binding Assay) EUB0001632a ERN2; conditions: at 10 µM
[2] = target: T1, Interleukin-1 receptor-associated kinase 4 (Homo sapiens) (UniProt Q9NWZ3); assay: Selectivity interaction (Kinase panel (Z-LYTE Assay)) EUB0001632a IRAK4; conditions: at 10 µM
T1 sequence (whole entry): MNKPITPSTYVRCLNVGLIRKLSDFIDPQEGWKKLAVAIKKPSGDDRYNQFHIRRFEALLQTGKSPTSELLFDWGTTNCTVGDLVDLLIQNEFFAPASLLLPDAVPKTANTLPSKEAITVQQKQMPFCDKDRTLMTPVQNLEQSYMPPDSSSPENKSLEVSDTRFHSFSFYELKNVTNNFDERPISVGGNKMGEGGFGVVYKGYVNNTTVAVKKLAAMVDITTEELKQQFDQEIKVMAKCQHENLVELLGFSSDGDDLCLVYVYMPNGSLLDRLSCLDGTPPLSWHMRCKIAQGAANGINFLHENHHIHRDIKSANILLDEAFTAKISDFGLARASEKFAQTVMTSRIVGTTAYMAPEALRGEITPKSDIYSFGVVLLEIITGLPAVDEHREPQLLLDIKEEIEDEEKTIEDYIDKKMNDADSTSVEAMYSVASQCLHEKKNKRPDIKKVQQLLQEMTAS

[3] = target: Dual specificity mitogen-activated protein kinase kinase 1 (Homo sapiens, UniProt Q02750); assay: Selectivity interaction (SelectScreen profiling (Invitrogen)) EUB0000607a MAP2K1; conditions: at 2 µM
Dual specificity mitogen-activated protein kinase kinase 1, sequence (Q02750 whole entry): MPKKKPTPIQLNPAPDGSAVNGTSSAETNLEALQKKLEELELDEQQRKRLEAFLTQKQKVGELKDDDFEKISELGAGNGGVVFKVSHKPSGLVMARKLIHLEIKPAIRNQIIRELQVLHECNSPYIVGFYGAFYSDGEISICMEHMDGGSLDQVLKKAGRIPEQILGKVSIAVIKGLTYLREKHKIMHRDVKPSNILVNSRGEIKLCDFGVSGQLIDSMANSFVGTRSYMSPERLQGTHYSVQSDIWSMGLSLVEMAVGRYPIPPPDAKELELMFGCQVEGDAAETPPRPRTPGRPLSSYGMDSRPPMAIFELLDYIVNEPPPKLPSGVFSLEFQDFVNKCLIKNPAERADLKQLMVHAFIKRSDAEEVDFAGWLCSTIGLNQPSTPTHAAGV

[4] = target: Serine/threonine-protein kinase 10 (Homo sapiens) (UniProt O94804); assay: Selectivity interaction (ActivX KiNativ screen (kinase selectivity in THP-1 cell lysates)) EUB0000639a STK10; assay type: subcellular; conditions: lysate, at 1 µM
Serine/threonine-protein kinase 10 (Homo sapiens), sequence (O94804 whole entry, looked up): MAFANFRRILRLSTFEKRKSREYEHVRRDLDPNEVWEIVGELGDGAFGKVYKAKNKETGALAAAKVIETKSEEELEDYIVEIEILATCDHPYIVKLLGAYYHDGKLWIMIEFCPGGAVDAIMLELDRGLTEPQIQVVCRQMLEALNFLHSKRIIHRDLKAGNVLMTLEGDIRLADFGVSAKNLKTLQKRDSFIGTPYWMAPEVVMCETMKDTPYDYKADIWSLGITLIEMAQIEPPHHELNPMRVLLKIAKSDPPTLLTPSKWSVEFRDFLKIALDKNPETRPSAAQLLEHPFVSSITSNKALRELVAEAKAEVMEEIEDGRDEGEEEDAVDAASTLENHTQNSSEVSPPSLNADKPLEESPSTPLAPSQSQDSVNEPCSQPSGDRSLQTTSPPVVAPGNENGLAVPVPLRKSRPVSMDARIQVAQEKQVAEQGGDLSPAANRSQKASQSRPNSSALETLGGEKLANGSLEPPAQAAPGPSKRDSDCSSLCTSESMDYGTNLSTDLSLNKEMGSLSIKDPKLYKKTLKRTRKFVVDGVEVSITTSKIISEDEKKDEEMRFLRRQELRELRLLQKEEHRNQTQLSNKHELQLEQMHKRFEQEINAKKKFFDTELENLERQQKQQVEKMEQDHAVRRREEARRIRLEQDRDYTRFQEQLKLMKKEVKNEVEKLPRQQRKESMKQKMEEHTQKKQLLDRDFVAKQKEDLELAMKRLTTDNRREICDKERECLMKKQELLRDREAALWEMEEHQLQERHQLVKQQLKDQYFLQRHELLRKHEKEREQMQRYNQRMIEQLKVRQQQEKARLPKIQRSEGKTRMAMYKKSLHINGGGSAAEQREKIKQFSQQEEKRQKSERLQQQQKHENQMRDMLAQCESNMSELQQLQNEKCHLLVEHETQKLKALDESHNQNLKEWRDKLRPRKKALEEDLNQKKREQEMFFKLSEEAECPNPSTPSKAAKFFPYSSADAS

[5] = target: Cyclin-dependent kinase 5 (Homo sapiens, UniProt Q00535); assay: Selectivity interaction (ActivX KiNativ screen (kinase selectivity in THP-1 cell lysates)) EUB0000639a CDK5; assay type: subcellular; conditions: lysate, at 0.01 µM
Cyclin-dependent kinase 5, sequence (Q00535 whole entry, looked up): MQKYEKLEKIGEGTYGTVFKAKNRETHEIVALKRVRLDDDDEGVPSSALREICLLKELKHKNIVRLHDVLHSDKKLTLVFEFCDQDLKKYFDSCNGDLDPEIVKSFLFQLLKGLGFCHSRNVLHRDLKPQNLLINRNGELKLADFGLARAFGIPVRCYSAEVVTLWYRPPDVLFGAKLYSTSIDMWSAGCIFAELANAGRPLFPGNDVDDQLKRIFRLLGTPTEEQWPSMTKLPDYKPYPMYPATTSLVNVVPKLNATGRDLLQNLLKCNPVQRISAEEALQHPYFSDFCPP

[6] = target: T2, Myotonin-protein kinase (Homo sapiens) (UniProt Q09013); assay: Selectivity interaction (ProQinase) EUB0000171b DMPK
T2 sequence (whole entry): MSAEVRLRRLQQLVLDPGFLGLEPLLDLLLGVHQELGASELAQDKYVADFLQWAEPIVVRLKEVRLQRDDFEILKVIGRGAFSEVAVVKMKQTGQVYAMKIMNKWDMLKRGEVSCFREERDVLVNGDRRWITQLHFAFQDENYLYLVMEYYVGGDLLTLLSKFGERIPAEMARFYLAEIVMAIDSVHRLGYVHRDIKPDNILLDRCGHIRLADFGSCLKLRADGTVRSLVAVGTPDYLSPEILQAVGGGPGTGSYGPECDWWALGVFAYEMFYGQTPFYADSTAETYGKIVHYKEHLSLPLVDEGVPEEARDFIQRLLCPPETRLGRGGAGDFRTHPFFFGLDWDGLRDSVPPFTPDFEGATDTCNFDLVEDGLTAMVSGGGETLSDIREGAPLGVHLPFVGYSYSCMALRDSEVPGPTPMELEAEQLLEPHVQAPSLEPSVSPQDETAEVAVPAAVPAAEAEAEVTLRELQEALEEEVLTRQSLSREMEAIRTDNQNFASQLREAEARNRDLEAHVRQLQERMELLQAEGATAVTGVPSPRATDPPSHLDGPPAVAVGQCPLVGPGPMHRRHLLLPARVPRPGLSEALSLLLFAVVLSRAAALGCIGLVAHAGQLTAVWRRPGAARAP

[7] = target: T3, Mitogen-activated protein kinase kinase kinase 7 (Homo sapiens) (UniProt O43318); assay: Selectivity interaction (KinomeScan (DiscoverX)) EUB0000595a MAP3K7; conditions: at 10 µM
T3 sequence (whole entry): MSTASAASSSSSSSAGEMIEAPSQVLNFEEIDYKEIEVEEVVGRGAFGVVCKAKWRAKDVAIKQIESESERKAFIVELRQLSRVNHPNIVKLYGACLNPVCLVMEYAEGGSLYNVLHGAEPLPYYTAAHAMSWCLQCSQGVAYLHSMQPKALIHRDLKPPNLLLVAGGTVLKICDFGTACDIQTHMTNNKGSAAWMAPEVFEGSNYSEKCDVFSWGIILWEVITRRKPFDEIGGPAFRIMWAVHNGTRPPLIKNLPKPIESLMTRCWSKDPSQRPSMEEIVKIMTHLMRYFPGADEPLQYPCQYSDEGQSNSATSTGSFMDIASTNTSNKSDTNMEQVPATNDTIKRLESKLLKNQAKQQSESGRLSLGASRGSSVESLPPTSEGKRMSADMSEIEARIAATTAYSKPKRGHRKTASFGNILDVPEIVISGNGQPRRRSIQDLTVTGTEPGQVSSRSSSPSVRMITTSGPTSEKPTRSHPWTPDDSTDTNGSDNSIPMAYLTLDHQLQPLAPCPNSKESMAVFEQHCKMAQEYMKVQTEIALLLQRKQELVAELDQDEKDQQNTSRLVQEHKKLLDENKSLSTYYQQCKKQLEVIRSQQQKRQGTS

[8] = target: Mitogen-activated protein kinase 14 (Homo sapiens, UniProt Q16539); assay: Selectivity interaction (Ambit KINOMEscan and KiNATiv profiling in Jurkat cells) EUB0000090b MAPK14; assay type: cell-based; conditions: at 1 µM
Mitogen-activated protein kinase 14, sequence (Q16539 whole entry): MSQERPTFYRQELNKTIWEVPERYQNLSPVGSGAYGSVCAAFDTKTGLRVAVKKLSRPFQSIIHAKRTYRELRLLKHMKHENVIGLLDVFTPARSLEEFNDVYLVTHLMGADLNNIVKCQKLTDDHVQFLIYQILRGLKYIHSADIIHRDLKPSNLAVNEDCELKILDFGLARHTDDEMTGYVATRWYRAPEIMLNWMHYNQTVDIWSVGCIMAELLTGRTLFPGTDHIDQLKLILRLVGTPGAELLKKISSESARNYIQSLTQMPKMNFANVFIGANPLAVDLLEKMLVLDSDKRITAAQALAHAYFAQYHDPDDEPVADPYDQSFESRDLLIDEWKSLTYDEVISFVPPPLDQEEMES

[9] = target: AP2-associated protein kinase 1 (Homo sapiens, UniProt Q2M2I8); assay: Selectivity interaction (Kinase panel (DSF assay)) EUB0001558a AAK1
[10] = target: RAC-gamma serine/threonine-protein kinase (Homo sapiens, UniProt Q9Y243); assay: Selectivity interaction (KinomeScan (DiscoverX)) EUB0000655a AKT3; conditions: at 10 µM
RAC-gamma serine/threonine-protein kinase, sequence (Q9Y243 whole entry): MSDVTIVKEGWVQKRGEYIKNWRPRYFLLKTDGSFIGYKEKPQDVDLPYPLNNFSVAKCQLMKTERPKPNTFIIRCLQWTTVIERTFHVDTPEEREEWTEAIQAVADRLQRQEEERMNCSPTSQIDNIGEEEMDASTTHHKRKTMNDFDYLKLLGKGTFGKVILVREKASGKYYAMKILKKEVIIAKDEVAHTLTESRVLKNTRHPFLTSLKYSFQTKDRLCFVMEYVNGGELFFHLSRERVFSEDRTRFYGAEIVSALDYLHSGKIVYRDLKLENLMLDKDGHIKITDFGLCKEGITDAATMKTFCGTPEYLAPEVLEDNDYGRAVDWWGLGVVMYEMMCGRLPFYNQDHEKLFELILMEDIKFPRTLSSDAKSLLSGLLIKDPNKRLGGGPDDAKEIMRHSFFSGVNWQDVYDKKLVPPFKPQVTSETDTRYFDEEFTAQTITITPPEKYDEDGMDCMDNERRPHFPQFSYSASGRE

[11] = target: MAP kinase-interacting serine/threonine-protein kinase 1 (Homo sapiens) (UniProt Q9BUB5); assay: Selectivity interaction (KinomeScan (DiscoverX)) EUB0000092b MKNK1; conditions: at 10 µM
MAP kinase-interacting serine/threonine-protein kinase 1 (Homo sapiens), sequence (Q9BUB5 whole entry, looked up): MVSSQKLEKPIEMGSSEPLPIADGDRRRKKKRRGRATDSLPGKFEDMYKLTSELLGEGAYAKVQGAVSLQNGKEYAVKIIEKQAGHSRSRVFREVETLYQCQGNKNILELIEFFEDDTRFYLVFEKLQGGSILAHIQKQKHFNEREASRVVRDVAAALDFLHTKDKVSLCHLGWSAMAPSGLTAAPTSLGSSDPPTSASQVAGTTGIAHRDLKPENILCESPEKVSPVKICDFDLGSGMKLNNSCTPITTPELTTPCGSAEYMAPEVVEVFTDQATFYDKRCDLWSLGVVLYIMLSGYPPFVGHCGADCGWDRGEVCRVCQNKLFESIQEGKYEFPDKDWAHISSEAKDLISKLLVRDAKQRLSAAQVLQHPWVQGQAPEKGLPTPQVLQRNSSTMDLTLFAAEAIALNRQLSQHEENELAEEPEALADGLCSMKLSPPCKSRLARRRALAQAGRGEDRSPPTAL

[12] = target: T4, Mitogen-activated protein kinase 12 (Homo sapiens) (UniProt P53778); assay: Selectivity interaction (KinomeScan (DiscoverX)) EUB0000618a MAPK12; conditions: at 10 µM
T4 sequence (whole entry): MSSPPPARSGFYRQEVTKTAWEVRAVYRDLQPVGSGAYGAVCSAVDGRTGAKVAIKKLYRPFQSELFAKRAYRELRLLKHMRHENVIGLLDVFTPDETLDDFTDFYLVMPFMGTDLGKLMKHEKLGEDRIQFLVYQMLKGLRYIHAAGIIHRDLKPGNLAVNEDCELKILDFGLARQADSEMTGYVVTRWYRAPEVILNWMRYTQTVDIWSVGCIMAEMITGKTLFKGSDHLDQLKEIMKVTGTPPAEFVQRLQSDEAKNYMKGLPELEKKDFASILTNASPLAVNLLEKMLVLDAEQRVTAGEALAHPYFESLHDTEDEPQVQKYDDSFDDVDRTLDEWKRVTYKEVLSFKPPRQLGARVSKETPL

[13] = target: Serine/threonine-protein kinase MARK1 (Homo sapiens) (UniProt Q9P0L2); assay: Selectivity interaction (KinomeScan (DiscoverX)) EUB0001619a MARK1; conditions: at 1 µM
Serine/threonine-protein kinase MARK1 (Homo sapiens), sequence (Q9P0L2 whole entry, looked up): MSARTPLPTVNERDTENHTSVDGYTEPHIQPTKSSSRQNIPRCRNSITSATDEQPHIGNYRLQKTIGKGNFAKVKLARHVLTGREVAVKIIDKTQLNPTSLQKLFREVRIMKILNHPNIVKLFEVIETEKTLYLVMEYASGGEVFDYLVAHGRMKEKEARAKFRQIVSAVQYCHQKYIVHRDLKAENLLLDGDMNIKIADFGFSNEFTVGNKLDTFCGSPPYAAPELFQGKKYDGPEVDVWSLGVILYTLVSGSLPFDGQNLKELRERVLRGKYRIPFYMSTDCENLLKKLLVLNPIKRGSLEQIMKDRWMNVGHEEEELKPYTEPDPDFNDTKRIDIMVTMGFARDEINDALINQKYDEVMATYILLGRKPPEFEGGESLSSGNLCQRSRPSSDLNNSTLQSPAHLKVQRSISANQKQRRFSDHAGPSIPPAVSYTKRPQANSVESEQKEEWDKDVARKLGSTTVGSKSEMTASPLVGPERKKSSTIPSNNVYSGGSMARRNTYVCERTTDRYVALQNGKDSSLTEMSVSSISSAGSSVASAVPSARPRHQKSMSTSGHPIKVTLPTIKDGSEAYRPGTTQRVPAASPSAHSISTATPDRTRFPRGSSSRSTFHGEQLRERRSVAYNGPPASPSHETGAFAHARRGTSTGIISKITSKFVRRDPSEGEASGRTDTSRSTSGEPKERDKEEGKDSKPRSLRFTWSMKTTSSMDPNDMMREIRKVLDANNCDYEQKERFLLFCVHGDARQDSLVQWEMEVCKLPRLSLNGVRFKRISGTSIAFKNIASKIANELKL

Serine/threonine-protein kinase/endoribonuclease IRE2 (Homo sapiens), sequence (Q76MJ5 35-926 limits assumed): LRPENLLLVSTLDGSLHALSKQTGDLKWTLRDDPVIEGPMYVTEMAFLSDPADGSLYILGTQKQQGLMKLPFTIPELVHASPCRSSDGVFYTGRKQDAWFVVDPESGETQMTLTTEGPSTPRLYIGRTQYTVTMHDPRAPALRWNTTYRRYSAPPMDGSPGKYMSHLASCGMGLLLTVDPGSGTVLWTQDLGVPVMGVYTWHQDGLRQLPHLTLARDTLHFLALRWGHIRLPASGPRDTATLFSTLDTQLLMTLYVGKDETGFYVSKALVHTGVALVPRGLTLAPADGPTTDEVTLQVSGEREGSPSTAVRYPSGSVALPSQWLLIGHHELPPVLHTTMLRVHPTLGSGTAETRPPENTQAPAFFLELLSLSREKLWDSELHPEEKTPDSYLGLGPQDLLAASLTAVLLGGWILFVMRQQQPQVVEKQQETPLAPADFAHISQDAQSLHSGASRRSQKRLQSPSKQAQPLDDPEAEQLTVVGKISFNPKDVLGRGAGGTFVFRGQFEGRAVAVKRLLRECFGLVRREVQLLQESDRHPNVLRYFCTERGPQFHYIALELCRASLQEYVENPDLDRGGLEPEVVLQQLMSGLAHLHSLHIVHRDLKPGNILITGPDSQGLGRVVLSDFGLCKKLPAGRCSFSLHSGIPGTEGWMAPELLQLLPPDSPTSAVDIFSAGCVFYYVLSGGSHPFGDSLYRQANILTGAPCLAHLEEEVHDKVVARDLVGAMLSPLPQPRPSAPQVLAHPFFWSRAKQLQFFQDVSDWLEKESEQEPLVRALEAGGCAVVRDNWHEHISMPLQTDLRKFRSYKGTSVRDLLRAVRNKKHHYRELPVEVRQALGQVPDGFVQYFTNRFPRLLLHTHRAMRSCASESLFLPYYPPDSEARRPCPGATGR

% of inhibition [1]: -30.9%
% of control [2]: 2.42%
Compound: Cn1cc(-n2cnc3c(NCc4nc5cc(Cl)c(Cl)cc5[nH]4)nc(N4CCOCC4)nc32)cn1

Compound: CNC(=O)Nc1ccc(-c2nc(N3CC4CCC(C3)O4)c3cnn(C4CCC5(CC4)OCCO5)c3n2)cc1
% of inhibition [3]: 3%

% of inhibition [4]: -16.6%
% of inhibition [5]: -4.7%
Compound: CC[C@@H]1[C@H](F)C(=O)N[C@@H]1COc1nccc2cc(C(N)=O)c(OC)cc12 [ZIMLOVISERTIB]

% of control ([6]; at 1 µM): 97%
% of control ([6]; at 5 µM): 92%
Compound: C=CC(=O)Nc1cccc(C(=O)Nc2ccc(Nc3cc(-c4[nH]c(SC)nc4C)ccn3)cc2)c1

Compound: COCC(=O)NC/C=C/c1ccc2ncnc(Nc3ccc(Oc4ccc(C)nc4)c(C)c3)c2c1 [CP-724714]
% of control [7]: 100%

Compound: CN(C)C/C=C/C(=O)Nc1ccc(C(=O)N2CCCC(Nc3ncc(Cl)c(-c4c[nH]c5ccccc45)n3)C2)cc1 (centres undefined)
% of control [8]: 92%

Compound: CC(C)(O)[C@H](F)CN1Cc2cc(NC(=O)c3cnn4cccnc34)c(N3CCOCC3)cc2C1=O
dTM [9]: 0.2 K

Compound: CN(C)CCOc1ccc(-c2nc(-c3ccncc3)c(-c3ccc4c(c3)CC/C4=N\O)[nH]2)cc1
% of control [10]: 97%

Compound: CCC(=O)N1CCN(c2ccc(-n3c(=O)ccc4cnc5ccc(-c6cnc7ccccc7c6)cc5c43)cc2C(F)(F)F)CC1
% of control [11]: 44%

Compound: O[C@H]1CC[C@H](Nc2ncc3nc(Nc4c(F)cc(F)cc4F)n([C@H]4CCOC4)c3n2)CC1
% of control [12]: 80%

Compound: N#Cc1cccc(-c2c[nH]c3ncnc(N4CCOCC4)c23)c1
% of control [13]: 91%
